This note sets out measurements from patent US20210268062A1, “INFLAMMATORY SKIN DISORDER TREATMENT” (NOVAPEP PTY LTD, priority 2018, published 2021).

Experiment [1] concerns Akt. The experiment is described as follows: Induction of Akt activation in keratinocytes (phosphorylation of Ser473). Type of experiment: cell-based. Conditions: with PAR-1 inhibitor. The method, then:
Briefly, cells are washed three times with PBS and lysed with lysis buffer (0.15 M NaCl, 0.01 mM PMSF, 1% NP-40, 0.02 M Tris, 6 M urea/H2O). Cell lysates are centrifuged at 10,000 g for 15 minutes and supernatants are separated by 10% sodium-dodecyl-sulphate polyacrylamide-gel electrophoresis (SDS-PAGE) and transferred to a PDVF membrane. The primary antibodies used are as follows against pan or phospho specific forms of Akt, GSK3β, ERK1/2. Immunoreactivity is detected by using the ECL detection system (Amersham Biosciences, Buckinghamshire, UK). Anti-human (3-actin (Sigma-Aldrich) antibody is included to normalize for unequal loading. Protein band intensity is evaluated by densitometry by ImageQuant™ LAS 4000 (GE Healthcare Life Sciences).
To confirm activation of Akt by TR47, Akt-mediated inactivation of GSK3β via phosphorylation at Ser9 is determined. GSK3β is a well-known downstream substrate for Akt.

The test system of experiment [2] is p-AKT. Put plainly: p-AKT ELISA in AE.Hy926 cells treated with PAR1 peptide and/or thrombin. It counts as cell-based, human. Details: pAKT compared to adding thrombin alone: dose or concentration left out as unconfirmed. The method, then:
AE.Hy926 cells (ATCC® CRL-2922′), the human umbilical vein cell line, established by fusing primary human umbilical vein cells with a thioguanine-resistant clone of A549 by exposure to polyethylene glycol (PEG), were cultured in Dulbecco's Modified Eagle's Medium (DMEM, high glucose) containing 10% fetal bovine serum (FBS) in 75 sq cm flasks. When cells reached confluence, they were trypsinzed and seeded into 48 well plates at 1×10^4 viable cells/well for 2 days to reach complete confluency. Before treatment, cells were preincubated with DMEM medium (no FBS) for 2 hrs, then switched to fresh DMEM and treated with: • PAR1 12mer peptide (shown on graphs as PAR1) (or scrambled control (SC) of PAR1 peptide) • thrombin
either alone or at different combinations for 1 hr. After treatment, media were discarded and 100 μl lysis buffer was added to each wells and cell lysates were collected and stored in −40° C. for ELISA.
Human p-GSK and p-AKT were measured using ELISA Dueset kits (R&D Systems) according to manufacturers' instructions.
(In general: In an ELISA, binding on a coated surface is turned into a signal by an enzyme label.)

For `CC(C)c1ccc(Cn2ccc3c4c(N)nc(NC5CC5)nc4ccc32)cc1` [SCH79797], the “dependence of Akt activation on PAR-1” value in experiment [1] is reported as “activation of Akt is dependent on PAR-1”.
“NPNDKYEPFWED (listed as Homo sapiens) [PAR1 peptide, PAR1 12mer peptide]”: the Akt activity entry in experiment [2] (PAR1 peptide added 15 mins before or after thrombin, FIG. 8B) is reported as “enhance the Akt activity”. In experiment [2] (PAR1 peptide, after 1 hour, AE.Hy926 cells), the “activation of Akt as determined by phosphorylation of Ser473” value is given as “induced robust activation of Akt”. For the same compound, the pAKT result in experiment [2] (higher concentrations, eg 10 nM thrombin in the presence of peptide) is “significantly enhanced pAKT”. Also, the “pAKT compared to adding thrombin alone” value in experiment [2] (lower doses of thrombin and PAR1 peptide added together simultaneously, FIG. 8A) is “increased pAKT”.
On to thrombin, for which the “phosphorylation of AKT” value in experiment [2] (thrombin alone at 0.1 and 0.25 nM, FIG. 8A) is on record as “inhibited phosphorylation of AKT”.
